Molecules are shown by their SMILES.

In general, IC50 refers to the concentration that inhibits the measured activity by half.

A short description of this data set: in vitro. To be noted: African green monkey (COS-1); Chinese hamster (CHO).

As for `C[C@H]1c2cccc(O)c2C(=O)C2=C(O)[C@]3(O)C(=O)C(C(N)=O)=C(O)[C@@H](N(C)C)[C@@H]3[C@@H](O)[C@@H]21` [doxycycline], the IC50 at 24 h was greater than 25 µg/mL. The result for `CN(C)c1ccc(O)c2c1C[C@H]1C[C@H]3[C@H](N(C)C)C(O)=C(C(N)=O)C(=O)[C@@]3(O)C(O)=C1C2=O` [minocycline] reads greater than 25 µg/mL.

The record behind these values is patent US8088820B2, “Substituted tetracycline compounds for the treatment of malaria” (Paratek Pharmaceuticals, Inc., priority 2001, dated 2012).
